Measurements: publication PMC9032233, “2-{5-[(Z,2Z)-2-Chloro-3-(4-nitrophenyl)-2-propenylidene]-4-oxo-2-thioxothiazolidin-3-yl}-3-methylbutanoic Acid as a Potential Anti-Breast Cancer Molecule” (International Journal of Molecular Sciences, 2022)
Read-outs that look alike come from different tables or passages of the source.

Experiments:
[1] = system: caspase-8; assay: Caspase-8 concentration in MCF-7 cell lysates (ELISA); format: cell-based, human; details: 24 h, control 0.901 ng/mL
Method: (§1) High sensitivity assay kits (EIAab Science Co., Ltd., Wuhan, China; Abcam plc., Cambridge, United Kingdom; Cloud-Clone Corp., Katy, TX, USA) were used to determine the concentrations of selected proteins in cell lysates after 24 h incubation with novel compound and reference drug in 1 µM and 5 µM concentrations. In brief, after trypsinization, cells were washed thrice with cold PBS and centrifuged at 1000× g for 5 min at 4 °C. Then, cells (1.5 × 10^6) were suspended in lysis buffer for whole-cell lysates. After the second centrifugation, cellular supernatants were frozen immediately at −70 °C. Untreated cancer cells were taken as a control.
(§2) The microtiter plates provided in the kits were pre-coated with an antibody specific to the analyzed antigen. The tests were carried out according to the manufacturer’s protocols.

[2] = system: MCF-7 cells; assay: Mitochondrial membrane potential analysis (JC-1), MCF-7; format: cell-based, human; details: 24 h
Method: The JC-1 MitoScreen kit (BD Biosciences, San Diego, CA, USA) was used for the mitochondrial membrane potential (ΔΨm) analysis. The assay was performed using a flow cytometer (BD FACSCanto II, Becton Dickinson Biosciences Systems, San Jose, CA, USA). The Les-3331 and reference drug were used in 1 µM and 5 µM concentrations. After 24 h incubation with tested compounds, the assay was performed as described in the literature. Analysis of the obtained results was performed using FACSDiva software (version 6.1.3, BD Biosciences Systems, San Jose, CA, USA). The equipment was calibrated with BD Cytometer Setup and Tracking Beads (BD Biosciences, San Diego, CA, USA).

[3] = system: topoisomerase IIα; assay: Flow cytometric analysis of anti-topoisomerase IIα antibody, MCF-7; format: cell-based, human; details: 24 h
Method: To confirm the ELISA results, flow cytometric analysis of Top II activity using an anti-topoisomerase IIα antibody conjugated with phycoerythrin (PE) was performed. The Les-3331 and etoposide were used at 1 µM and 5 µM concentrations. Cancer cells were incubated for 24 h with tested compounds and the assay was carried out in accordance with the manufacturer’s protocol. Briefly, cells were centrifuged and resuspended in 4% formaldehyde. Then, cells were incubated at RT for 15 min and subsequently washed with excess PBS and centrifuged. Thereafter, ice-cold 90% methanol was added to the cells and they were incubated for 1 h in an ice bath. Next, cells were washed with excess PBS and centrifuged again. In the meantime, the primary antibody was diluted (1:100) in PBS. Then, cells were resuspended in the prepared primary antibody (100 µL) and incubated at RT, protected from light, for 1 h. Finally, cells were washed and resuspended in PBS (300 µL). The prepared samples were measured immediately. Analysis of the obtained results was performed using a flow cytometer (BD FACSCanto II, Becton Dickinson Biosciences Systems, San Jose, CA, USA) and FACSDiva software (v6.1.3, BD Biosciences Systems, San Jose, CA, USA). The equipment was calibrated with BD Cytometer Setup and Tracking Beads (BD Biosciences, San Diego, CA, USA).

[4] = system: Beclin-1; assay: Beclin-1 concentration in MCF-7 cell lysates (ELISA); format: cell-based, human; details: 24 h, control 7.965 ng/mL
Method: as §1, with “after 24 h incubation with novel compound and reference drug in 1 µM and 5 µM concentrations.” left out
as §2

[5] = system: LC3B; assay: LC3B concentration in MDA-MB-231 cell lysates (ELISA); format: cell-based, human; details: 24 h, control 1.504 ng/mL
Method: as §1, with “after 24 h incubation with novel compound and reference drug in 1 µM and 5 µM concentrations.” left out
as §2

[6] = system: LC3A; assay: LC3A concentration in MCF-7 cell lysates (ELISA); format: cell-based, human; details: 24 h, control 6.726 ng/mL
Method: as §1, with “after 24 h incubation with novel compound and reference drug in 1 µM and 5 µM concentrations.” left out
as §2

[7] = system: MCF-7 cancer cells; assay: [3H]-thymidine incorporation assay, MCF-7; format: cell-based; details: Homo sapiens
Method: The antiproliferative properties of the newly synthesized compound were investigated through the [^3H]-thymidine incorporation assay, as described in the literature. Cells culture was exposed to various concentrations of Les-3331 acid and reference drug for 24 h. Thereafter, cells were washed with PBS and 1 mL of fresh medium was added to each well. Then, 0.5 µCi of radioactive [^3H]-thymidine was appended, and the incubation continued for four hours. After the following incubation, the liquid was aspirated and the plate was placed on ice. Cells were washed twice with 1 mL of 0.05 M Tris-HCl buffer comprising 0.11 M NaCl, then twice after that with 1 mL of 5% TCA acid (Stanlab, Lublin, Poland). Finally, the cells were dissolved with 1 mL of 0.1 M NaOH with 1% SDS (Sigma-Aldrich, St. Louis, MO, USA) at room temperature (RT). The resulting cell lysates were transferred into scintillation vials containing 2 mL of scintillation fluid. The radioactivity was determined using Scintillation Counter 1900 TR, TRI-CARB (Packard, Perkin Elmer, Inc., San Jose, CA, USA). The intensity of DNA biosynthesis in cells was expressed in dpm of radioactive thymidine incorporated in the DNA. The radioactivity observed in untreated control cells was taken as 100%. Values from the tested compounds were expressed as a percentage of the control value.

[8] = system: topoisomerase II; assay: Topoisomerase II concentration in MDA-MB-231 cell lysates (ELISA); format: cell-based, human; details: 24 h, control 2.700 ng/mL
Method: as §1, §2

[9] = system: MCF-7 cells; assay: Annexin V binding assay (flow cytometry), MCF-7; format: cell-based, human; details: 24 h
Method: The effect of Les-3331 and reference drug on the induction of apoptosis process in human breast cancer cell lines was evaluated using a flow cytometer (BD FACSCanto II, Becton Dickinson Biosciences Systems, San Jose, CA, USA) and Annexin V binding Apoptosis Detection Kit II (BD Biosciences, San Diego, CA, USA). The Les-3331 and reference drug were used in 1 µM and 5 µM concentrations. The test was carried out after 24 h incubation with the tested compounds according to the manufacturer’s protocol and was previously described by our research group. Analysis of the obtained results was performed using FACSDiva software (version 6.1.3, BD Biosciences Systems, San Jose, CA, USA). The equipment was calibrated with BD Cytometer Setup and Tracking Beads (BD Biosciences, San Diego, CA, USA).

For `CC(C)C(C(=O)O)N1C(=O)/C(=C/C(Cl)=C/c2ccc([N+](=O)[O-])cc2)SC1=S` (stereo not shown) [Les-3331, 2-{5-[(Z,2Z)-2-chloro-3-(4-nitrophenyl)-2-propenylidene]-4-oxo-2-thioxothiazolidin-3-yl}-3-methylbutanoic acid], the Casp-8 concentration ([1]; 1 µM) was 1.050 ng/mL, the Casp-8 concentration ([1]; 5 µM) was 1.253 ng/mL and the “% of cells with decreased ΔΨm” value ([2]; MCF-7, 1 µM) was 9.8%. For the same molecule, the “% of cells with decreased ΔΨm” value ([2]; MCF-7, 5 µM) was 25.5%, the “% of cells without anti-topoisomerase IIα antibody” value ([3]; MCF-7, 1 µM) was 34.1% and the “% of cells without anti-topoisomerase IIα antibody” value ([3]; MCF-7, 5 µM) was 49.2%. It also gave a Beclin-1 concentration ([4]; 1 µM) of 7.435 ng/mL, a Beclin-1 concentration ([4]; 5 µM) of 3.948 ng/mL and an LC3B concentration ([5]; MDA-MB-231, 1 µM) of 1.178 ng/mL. It also gave an LC3B concentration ([5]; MDA-MB-231, 5 µM) of 0.996 ng/mL, an LC3A concentration ([6]; MCF-7, 1 µM) of 4.917 ng/mL and an LC3A concentration ([6]; MCF-7, 5 µM) of 1.127 ng/mL. The IC50 ([7]; MCF7, read-out: IC50, cell proliferation ([3H]-thymidine incorporation)) was 5.54 µM, the “Top II concentration” value ([8]; MDA-MB-231, 1 µM) was 2.508 ng/mL and the “Top II concentration” value ([8]; MDA-MB-231, 5 µM) was 1.436 ng/mL. For the same molecule, the “% of late and early apoptotic cells” value ([9]; MCF-7, 1 µM) was 6.5% and the “% of late and early apoptotic cells” value ([9]; MCF-7, 5 µM) was 40.4%.
For `COc1cc([C@@H]2c3cc4c(cc3[C@@H](O[C@@H]3O[C@@H]5CO[C@@H](C)O[C@H]5[C@H](O)[C@H]3O)[C@H]3COC(=O)[C@H]23)OCO4)cc(OC)c1O` [Etoposide, reference compound], the Casp-8 concentration ([1]; 1 µM) was 0.812 ng/mL, the Casp-8 concentration ([1]; 5 µM) was 0.951 ng/mL and the “% of cells with decreased ΔΨm” value ([2]; MCF-7, 1 µM) was 10.2%. The “% of cells with decreased ΔΨm” value ([2]; MCF-7, 5 µM) was 18.5%, the “% of cells without anti-topoisomerase IIα antibody” value ([3]; MCF-7, 1 µM) was 8.6% and the “% of cells without anti-topoisomerase IIα antibody” value ([3]; MCF-7, 5 µM) was 11.8%. For the same molecule, the Beclin-1 concentration ([4]; 1 µM) was 7.848 ng/mL, the Beclin-1 concentration ([4]; 5 µM) was 6.686 ng/mL and the LC3B concentration ([5]; MDA-MB-231, 1 µM) was 0.784 ng/mL. The LC3B concentration ([5]; MDA-MB-231, 5 µM) was 0.615 ng/mL, the LC3A concentration ([6]; MCF-7, 1 µM) was 4.505 ng/mL and the LC3A concentration ([6]; MCF-7, 5 µM) was 4.582 ng/mL. The IC50 ([7]; MCF7, MCF-7, 24 h incubation, read-out: IC50, cell proliferation ([3H]-thymidine incorporation)) was over 20 µM, the “Top II concentration” value ([8]; MDA-MB-231, 1 µM) was 2.175 ng/mL and the “Top II concentration” value ([8]; MDA-MB-231, 5 µM) was 2.003 ng/mL. The “% of late and early apoptotic cells” value ([9]; MCF-7, 1 µM) was 10.7% and the “% of late and early apoptotic cells” value ([9]; MCF-7, 5 µM) was 10.7%.
